In brackets after ≈: the same amount, converted by molar mass. Like-named read-outs stand apart in the source and are kept apart here.
Experiments:
[1] = target: human (hACC2) (Homo sapiens, UniProt O00763); assay: In vitro ACC inhibition assay (ADP-Glo), hACC2; format: biochemical; conditions: 5 nM ACC2, 20 μM ATP, 20 μM acetyl-CoA
Experimental: The detailed procedure is as follows. […] 10 μL ADP glo reagent was added. […] 20 μL kinase detection reagent was added.

[2] = tested on: C. albicans; assay: Antifungal Activity Assay (broth microtiter MIC), C. albicans; format: cell-based, Candida albicans; conditions: Candida albicans, ATCC90028, 48 h
How it was run: (§1)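 Susceptibility was determined by CLSI M27-A3 broth microdilution in RPMI 1640 buffered with MOPS. Growth inhibition was scored visually after 48 h.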

[3] = tested on: C. krusei; assay: Antifungal Activity Assay (broth microtiter MIC), C. krusei; format: cell-based, Candida krusei; conditions: Pichia kudriavzevii, ATCC6258, 48 h
How it was run: as §1

[4] = tested on: C. parapsilosis; assay: Antifungal Activity Assay (broth microtiter MIC), C. parapsilosis; format: cell-based, Candida parapsilosis; conditions: Lodderomyces parapsilosis, ATCC22019, 48 h
How it was run: as §1

[5] = tested on: Botrtyis cinerea (Bc); assay: Growth inhibition assay of fungal pathogens, Bc; format: cell-based; conditions: 48 h, growth inhibition at 48 hours vs 2% DMSO control
How it was run: (§2)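 Inhibition percentages reflect 48 h OD600 and visual scores relative to a 2% DMSO control. Test concentrations were 50, 10, 2 ppm or 2, 0.4, 0.08 ppm final, applied to spores in 17% V8 medium.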

[6] = tested on: Collectotrichum graminicola (Cg); assay: Growth inhibition assay of fungal pathogens, Cg; format: cell-based; conditions: 48 h, growth inhibition at 48 hours vs 2% DMSO control
How it was run: as §2

[7] = tested on: Diplodia maydis (Dm); assay: Growth inhibition assay of fungal pathogens, Dm; format: cell-based; conditions: Stenocarpella maydis, 48 h, growth inhibition at 48 hours vs 2% DMSO control
How it was run: as §2

[8] = tested on: Fusarium moniliforme (Fm); assay: Growth inhibition assay of fungal pathogens, Fm; format: cell-based; conditions: Fusarium verticillioides, 48 h, read-out: Concentration at 90% Inhibition Fm
How it was run: as §2

[9] = tested on: Fusarium virguliforme (Fv); assay: Growth inhibition assay of fungal pathogens, Fv; format: cell-based; conditions: 48 h
How it was run: as §2

[10] = tested on: Phytophthora capsici (Pc); assay: Growth inhibition assay of fungal pathogens, Pc; format: cell-based; conditions: 48 h
How it was run: as §2

[11] = tested on: Rhizoctonia solani (Rs); assay: Growth inhibition assay of fungal pathogens, Rs; format: cell-based; conditions: 48 h
[12] = tested on: Septoria tritici (St); assay: Growth inhibition assay of fungal pathogens, St; format: cell-based; conditions: Zymoseptoria tritici, 48 h, growth inhibition at 48 hours vs 2% DMSO control
How it was run: as §2

[13] = target: fungal (fACC2) (UniProt Q00955); conditions: read-out: fACC2 (in vitro ACC2 Inhibition Assay, IC50), ADP-Glo, 5 nM ACC2, 20 μM ATP, 20 μM acetyl-CoA
[14] = Table 3a, ATCC 90028, 3 replicates, MIC recorded at 48 h, read-out: MIC, C. albicans ATCC 90028
[15] = Table 3b (additional results), ATCC 90028, 3 replicates, MIC recorded at 48 h, read-out: MIC, C. albicans ATCC 90028
[16] = Table 3a, ATCC 6258, 3 replicates, MIC recorded at 48 h, read-out: MIC, C. krusei ATCC 6258
[17] = Table 3b (additional results), ATCC 6258, 3 replicates, MIC recorded at 48 h, read-out: MIC, C. krusei ATCC 6258
[18] = Table 3a, ATCC 22019, 3 replicates, MIC recorded at 48 h, read-out: MIC, C. parapsilosis ATCC 22019
[19] = Table 3b (additional results), ATCC 22019, 3 replicates, MIC recorded at 48 h, read-out: MIC, C. parapsilosis ATCC 22019
[20] = Botrtyis cinerea, read-out: Concentration at 90% Inhibition Bc
[21] = Collectotrichum graminicola, read-out: Concentration at 90% Inhibition Cg
[22] = Diplodia maydis, read-out: Concentration at 90% Inhibition Dm
[23] = Fusarium moniliforme, growth inhibition at 48 hours vs 2% DMSO control
[24] = growth inhibition at 48 hours vs 2% DMSO control, read-out: Concentration at 90% Inhibition Fv
[25] = growth inhibition at 48 hours vs 2% DMSO control, read-out: Concentration at 90% Inhibition Pc
[26] = mycelial plugs, growth inhibition at 48 hours vs 2% DMSO control, read-out: Concentration at 90% Inhibition Rs
[27] = Septoria tritici, read-out: Concentration at 90% Inhibition St

human (hACC2), sequence (O00763 whole entry): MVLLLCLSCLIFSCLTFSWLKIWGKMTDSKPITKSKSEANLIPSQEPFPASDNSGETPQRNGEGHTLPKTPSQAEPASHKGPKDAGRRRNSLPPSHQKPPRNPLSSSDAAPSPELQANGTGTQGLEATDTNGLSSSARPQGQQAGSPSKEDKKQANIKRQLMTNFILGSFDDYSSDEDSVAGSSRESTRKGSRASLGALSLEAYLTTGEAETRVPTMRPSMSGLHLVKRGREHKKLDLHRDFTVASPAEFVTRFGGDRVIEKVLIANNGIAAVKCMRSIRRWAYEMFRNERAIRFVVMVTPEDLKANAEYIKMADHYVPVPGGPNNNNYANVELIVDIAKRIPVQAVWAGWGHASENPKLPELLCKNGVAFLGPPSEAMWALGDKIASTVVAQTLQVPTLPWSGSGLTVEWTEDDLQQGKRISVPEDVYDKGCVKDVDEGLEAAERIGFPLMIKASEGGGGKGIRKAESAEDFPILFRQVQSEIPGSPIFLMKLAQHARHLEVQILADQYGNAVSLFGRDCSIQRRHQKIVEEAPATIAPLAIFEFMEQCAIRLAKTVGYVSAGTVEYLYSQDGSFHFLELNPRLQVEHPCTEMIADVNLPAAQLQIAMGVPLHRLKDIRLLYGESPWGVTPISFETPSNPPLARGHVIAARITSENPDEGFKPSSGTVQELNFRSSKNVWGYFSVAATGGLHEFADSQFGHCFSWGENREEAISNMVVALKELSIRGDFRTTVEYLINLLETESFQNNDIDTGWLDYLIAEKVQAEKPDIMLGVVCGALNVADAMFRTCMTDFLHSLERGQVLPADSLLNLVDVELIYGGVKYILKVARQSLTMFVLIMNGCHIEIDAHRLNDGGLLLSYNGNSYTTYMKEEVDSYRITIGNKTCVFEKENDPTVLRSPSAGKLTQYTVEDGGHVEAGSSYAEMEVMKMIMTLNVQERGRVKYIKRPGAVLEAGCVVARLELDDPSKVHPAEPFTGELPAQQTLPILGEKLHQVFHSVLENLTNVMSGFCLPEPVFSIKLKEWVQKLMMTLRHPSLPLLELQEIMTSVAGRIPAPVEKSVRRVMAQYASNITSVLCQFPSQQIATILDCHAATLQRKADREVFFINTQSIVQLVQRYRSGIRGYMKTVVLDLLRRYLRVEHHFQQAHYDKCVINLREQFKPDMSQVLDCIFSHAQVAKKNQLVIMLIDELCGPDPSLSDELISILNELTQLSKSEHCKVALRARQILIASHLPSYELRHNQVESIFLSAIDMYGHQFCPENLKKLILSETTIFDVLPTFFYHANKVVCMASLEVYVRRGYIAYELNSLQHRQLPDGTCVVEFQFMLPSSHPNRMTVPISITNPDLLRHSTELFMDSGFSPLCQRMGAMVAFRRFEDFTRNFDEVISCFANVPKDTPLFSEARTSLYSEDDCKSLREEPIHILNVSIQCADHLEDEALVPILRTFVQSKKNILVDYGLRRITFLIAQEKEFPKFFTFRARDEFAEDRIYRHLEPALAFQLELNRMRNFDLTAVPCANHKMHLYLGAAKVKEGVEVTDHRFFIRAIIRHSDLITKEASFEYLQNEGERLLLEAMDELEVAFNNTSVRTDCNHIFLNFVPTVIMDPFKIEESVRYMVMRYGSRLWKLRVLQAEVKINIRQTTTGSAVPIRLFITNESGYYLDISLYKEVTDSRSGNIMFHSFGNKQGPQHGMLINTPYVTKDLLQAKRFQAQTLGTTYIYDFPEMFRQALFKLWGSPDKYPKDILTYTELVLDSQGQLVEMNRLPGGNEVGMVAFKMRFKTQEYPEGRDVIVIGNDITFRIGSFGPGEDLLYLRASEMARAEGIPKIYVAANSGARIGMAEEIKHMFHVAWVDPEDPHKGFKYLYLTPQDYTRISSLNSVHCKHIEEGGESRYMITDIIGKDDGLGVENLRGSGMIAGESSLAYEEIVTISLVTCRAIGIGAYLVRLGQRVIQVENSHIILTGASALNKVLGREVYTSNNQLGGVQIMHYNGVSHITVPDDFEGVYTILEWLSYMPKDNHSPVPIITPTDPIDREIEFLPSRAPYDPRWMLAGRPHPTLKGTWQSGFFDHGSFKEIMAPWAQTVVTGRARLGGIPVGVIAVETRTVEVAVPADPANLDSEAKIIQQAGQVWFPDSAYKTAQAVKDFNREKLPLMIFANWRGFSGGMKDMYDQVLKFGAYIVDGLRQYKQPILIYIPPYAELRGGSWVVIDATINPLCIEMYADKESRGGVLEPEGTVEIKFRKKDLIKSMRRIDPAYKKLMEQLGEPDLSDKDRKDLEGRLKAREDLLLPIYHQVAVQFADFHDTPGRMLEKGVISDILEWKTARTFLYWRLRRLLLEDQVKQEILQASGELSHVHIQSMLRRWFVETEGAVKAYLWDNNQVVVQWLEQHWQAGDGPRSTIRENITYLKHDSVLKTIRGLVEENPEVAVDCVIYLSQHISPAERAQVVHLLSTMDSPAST
fungal (fACC2), sequence (Q00955 whole entry): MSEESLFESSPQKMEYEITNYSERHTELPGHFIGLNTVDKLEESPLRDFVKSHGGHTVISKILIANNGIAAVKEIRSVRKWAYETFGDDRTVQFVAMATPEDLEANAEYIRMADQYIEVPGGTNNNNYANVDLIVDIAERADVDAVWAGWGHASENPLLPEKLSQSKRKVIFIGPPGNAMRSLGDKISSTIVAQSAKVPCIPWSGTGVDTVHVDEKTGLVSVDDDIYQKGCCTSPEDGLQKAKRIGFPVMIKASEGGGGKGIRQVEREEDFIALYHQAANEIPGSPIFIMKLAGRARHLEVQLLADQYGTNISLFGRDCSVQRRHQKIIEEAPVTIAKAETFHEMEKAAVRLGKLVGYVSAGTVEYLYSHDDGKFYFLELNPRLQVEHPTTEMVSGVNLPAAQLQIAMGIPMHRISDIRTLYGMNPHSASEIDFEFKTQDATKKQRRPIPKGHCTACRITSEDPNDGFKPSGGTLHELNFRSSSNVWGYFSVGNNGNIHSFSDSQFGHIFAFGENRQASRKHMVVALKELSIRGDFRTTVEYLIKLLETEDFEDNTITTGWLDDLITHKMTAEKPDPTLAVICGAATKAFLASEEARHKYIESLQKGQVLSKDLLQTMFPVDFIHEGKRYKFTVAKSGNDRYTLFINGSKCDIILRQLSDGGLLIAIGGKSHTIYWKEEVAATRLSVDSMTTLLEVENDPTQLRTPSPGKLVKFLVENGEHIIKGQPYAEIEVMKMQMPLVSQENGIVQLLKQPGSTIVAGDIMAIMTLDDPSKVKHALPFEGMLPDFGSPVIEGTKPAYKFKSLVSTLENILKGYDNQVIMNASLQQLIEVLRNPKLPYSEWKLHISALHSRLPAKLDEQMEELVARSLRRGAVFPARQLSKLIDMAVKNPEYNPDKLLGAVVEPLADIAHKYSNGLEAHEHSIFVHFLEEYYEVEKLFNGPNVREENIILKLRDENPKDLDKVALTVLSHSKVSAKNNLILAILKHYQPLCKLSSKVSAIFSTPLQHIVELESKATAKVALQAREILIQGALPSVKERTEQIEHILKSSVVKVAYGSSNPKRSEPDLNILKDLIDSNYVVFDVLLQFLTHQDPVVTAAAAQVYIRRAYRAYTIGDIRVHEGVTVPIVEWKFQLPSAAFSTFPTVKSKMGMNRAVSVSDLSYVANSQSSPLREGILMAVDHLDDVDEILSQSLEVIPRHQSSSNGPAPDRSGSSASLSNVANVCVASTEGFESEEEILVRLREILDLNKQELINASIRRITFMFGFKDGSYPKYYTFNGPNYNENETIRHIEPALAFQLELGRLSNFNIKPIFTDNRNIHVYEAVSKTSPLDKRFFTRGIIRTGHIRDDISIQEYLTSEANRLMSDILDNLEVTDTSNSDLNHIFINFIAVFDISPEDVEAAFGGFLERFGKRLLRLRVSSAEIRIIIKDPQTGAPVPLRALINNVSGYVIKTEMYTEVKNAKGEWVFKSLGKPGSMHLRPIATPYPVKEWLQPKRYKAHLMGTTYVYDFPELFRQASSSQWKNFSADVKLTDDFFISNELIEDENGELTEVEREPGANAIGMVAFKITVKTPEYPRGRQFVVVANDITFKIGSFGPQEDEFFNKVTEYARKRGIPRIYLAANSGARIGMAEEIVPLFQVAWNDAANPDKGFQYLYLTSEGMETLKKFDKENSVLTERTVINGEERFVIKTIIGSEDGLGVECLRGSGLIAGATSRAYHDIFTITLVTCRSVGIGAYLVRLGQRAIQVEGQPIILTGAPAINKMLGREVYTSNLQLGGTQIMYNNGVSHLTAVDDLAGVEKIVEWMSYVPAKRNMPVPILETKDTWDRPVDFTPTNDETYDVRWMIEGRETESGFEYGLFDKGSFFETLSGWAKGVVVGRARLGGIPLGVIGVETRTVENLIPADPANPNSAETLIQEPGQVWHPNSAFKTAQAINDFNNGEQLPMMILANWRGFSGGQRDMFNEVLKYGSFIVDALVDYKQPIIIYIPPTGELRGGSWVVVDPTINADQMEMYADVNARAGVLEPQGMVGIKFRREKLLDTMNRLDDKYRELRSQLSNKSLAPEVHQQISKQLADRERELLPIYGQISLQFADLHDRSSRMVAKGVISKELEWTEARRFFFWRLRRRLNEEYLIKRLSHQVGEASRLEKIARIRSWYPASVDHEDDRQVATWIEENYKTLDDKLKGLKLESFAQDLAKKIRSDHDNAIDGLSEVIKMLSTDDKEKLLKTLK

Row | Structure (SMILES) | IC50 ([1]; Table 2a) [nM] | IC50 ([1]; Table 2b, additional results) [nM] | MIC [2, 14] [µg/mL] | MIC [2, 15] [µg/mL] | MIC [3, 16] [µg/mL] | MIC [3, 17] [µg/mL] | MIC [4, 18] [µg/mL] | MIC [4, 19] [µg/mL] | IC90 [5, 20] [µg/mL] | IC90 [6, 21] [µg/mL] | IC90 [7, 22] [µg/mL] | IC90 [8, 23] [µg/mL] | IC90 [9, 24] [µg/mL] | IC90 [10, 25] [µg/mL] | IC90 [11, 26] [µg/mL] | IC90 [12, 27] [µg/mL] | IC50 ([13]; Table 2a) [nM] | IC50 ([13]; Table 2b, additional results) [nM] | other results
1 | CNC(=O)C(C)(C)n1c(=O)c2c(C)c(-n3nccn3)sc2n(C[C@H](OCCC#N)c2cc(F)ccc2OC)c1=O [Compound I-141] | 5 to 10 | 5 to 10 | 2.1 to 4 (≈ 3.69 to 7.02 µM) | > 4.01 | 2.1 to 4 (≈ 3.69 to 7.02 µM) | 2.01 to 4 (≈ 3.53 to 7.02 µM) | 2.1 to 4 (≈ 3.69 to 7.02 µM) | 2.01 to 4 (≈ 3.53 to 7.02 µM) | 2 (≈ 3.51 µM) | 10 (≈ 17.6 µM) | 2 (≈ 3.51 µM) | 0.08 (≈ 0.14 µM) | 2 (≈ 3.51 µM) | > 50 | 0.08 (≈ 0.14 µM) | > 50 | 1 to 5 | 1 to 5 | 
2 | CCNC(=O)C(C)(C)n1c(=O)c2c(C)c(-n3nccn3)sc2n(C[C@H](OCCC#N)c2ccccc2OC)c1=O [Compound I-142] | 1 to 5 | 1 to 5 | 2.1 to 4 (≈ 3.71 to 7.07 µM) | 2.01 to 4 (≈ 3.55 to 7.07 µM) | 1.1 to 2 (≈ 1.94 to 3.54 µM) | 2.01 to 4 (≈ 3.55 to 7.07 µM) | 2.1 to 4 (≈ 3.71 to 7.07 µM) | 1.01 to 2 (≈ 1.79 to 3.54 µM) | 0.4 (≈ 0.707 µM) | 2 (≈ 3.54 µM) | 2 (≈ 3.54 µM) | 0.4 (≈ 0.707 µM) | 0.4 (≈ 0.707 µM) | > 50 | 0.08 (≈ 0.141 µM) | > 50 | 1 to 5 | 1 to 5 | 
3 | CNC(=O)C(C)(C)n1c(=O)c2c(C)c(-n3nccn3)sc2n(C[C@H](OCCC#N)c2ccccc2OC)c1=O [Compound I-143] | 5 to 10 | 5 to 10 | 2.1 to 4 (≈ 3.81 to 7.25 µM) | 2.01 to 4 (≈ 3.64 to 7.25 µM) | 2.1 to 4 (≈ 3.81 to 7.25 µM) | 2.01 to 4 (≈ 3.64 to 7.25 µM) | 2.1 to 4 (≈ 3.81 to 7.25 µM) | 1.01 to 2 (≈ 1.83 to 3.63 µM) | 2 (≈ 3.63 µM) | > 50 | 10 (≈ 18.1 µM) | 0.08 (≈ 0.145 µM) | 10 (≈ 18.1 µM) | > 50 | 0.08 (≈ 0.145 µM) | > 50 | 1 to 5 | 1 to 5 | 
4 | COc1ccc(F)cc1[C@H](Cn1c(=O)n(C(C)(C)C(=O)NC(C)C)c(=O)c2c(C)c(-n3nccn3)sc21)OCC#N [Compound I-144] |  | 5 to 10 |  |  |  |  |  |  |  |  |  |  |  |  |  |  | 1 to 5 | 1 to 5 | MIC ([2]; read-out: MIC, C. albicans ATCC 90028, Table 3a, 3 replicates, MIC recorded at 48 h): 0.25 to 1 µg/mL (≈ 0.428 to 1.71 µM); MIC ([2]; read-out: MIC, C. albicans ATCC 90028, Table 3b (additional results), 3 replicates, MIC recorded at 48 h): 1.01 to 2 µg/mL (≈ 1.73 to 3.43 µM); MIC ([3]; read-out: MIC, C. krusei ATCC 6258, Table 3a, 3 replicates, MIC recorded at 48 h): 0.25 to 1 µg/mL (≈ 0.428 to 1.71 µM); MIC ([3]; read-out: MIC, C. krusei ATCC 6258, Table 3b (additional results), 3 replicates, MIC recorded at 48 h): 0.25 to 1 µg/mL (≈ 0.428 to 1.71 µM); MIC ([4]; read-out: MIC, C. parapsilosis ATCC 22019, Table 3a, 3 replicates, MIC recorded at 48 h): 0.25 to 1 µg/mL (≈ 0.428 to 1.71 µM); MIC ([4]; read-out: MIC, C. parapsilosis ATCC 22019, Table 3b (additional results), 3 replicates, MIC recorded at 48 h): 1.01 to 2 µg/mL (≈ 1.73 to 3.43 µM); IC90 ([5]; read-out: Concentration at 90% Inhibition Bc, Botrtyis cinerea): 0.4 µg/mL (≈ 0.685 µM); IC90 ([6]; read-out: Concentration at 90% Inhibition Cg, Collectotrichum graminicola): 0.4 µg/mL (≈ 0.685 µM); IC90 ([7]; read-out: Concentration at 90% Inhibition Dm, Diplodia maydis): 0.4 µg/mL (≈ 0.685 µM); IC90 [8]: 2 µg/mL (≈ 3.43 µM); IC90 ([9]; read-out: Concentration at 90% Inhibition Fv, Fusarium virguliforme, growth inhibition at 48 hours vs 2% DMSO control): 0.4 µg/mL (≈ 0.685 µM); IC90 ([10]; read-out: Concentration at 90% Inhibition Pc, Phytophthora capsici, growth inhibition at 48 hours vs 2% DMSO control): > 50 µg/mL; IC90 ([11]; read-out: Concentration at 90% Inhibition Rs, Rhizoctonia solani, mycelial plugs, growth inhibition at 48 hours vs 2% DMSO control): 0.08 µg/mL (≈ 0.137 µM); IC90 ([12]; read-out: Concentration at 90% Inhibition St, Septoria tritici): > 50 µg/mL
5 | COc1ccc(F)cc1[C@H](Cn1c(=O)n(C(C)(C)C(=O)NC(C)C)c(=O)c2c(C)c(-n3nccn3)sc21)OC[C@@H](C)C#N [Compound I-150] | 1 to 5 | 1 to 5 | 0.25 to 1 (≈ 0.409 to 1.63 µM) | 0.25 to 1 (≈ 0.409 to 1.63 µM) | 0.25 to 1 (≈ 0.409 to 1.63 µM) | 0.25 to 1 (≈ 0.409 to 1.63 µM) | 0.25 to 1 (≈ 0.409 to 1.63 µM) | 0.25 to 1 (≈ 0.409 to 1.63 µM) | 0.4 (≈ 0.654 µM) | 0.08 (≈ 0.131 µM) | 0.08 (≈ 0.131 µM) | 0.08 (≈ 0.131 µM) | 0.4 (≈ 0.654 µM) | > 50 | 0.08 (≈ 0.131 µM) | > 50 | 0.4 to 1 | 0.3 to 1 | 

Source: patent publication US10800791B2, “Triazole ACC inhibitors and uses thereof” (Gilead Apollo, LLC, priority 2015, dated 2020)
